Experimental data reported in article PMC10824666 (Nature Cancer, 2023).
Where two headings read alike, the source gives them in different places.

Columns and labels:
Assay in all cases: biochemical
Design in all cases: Eurofins DiscoverX kinase panel, competitive binding assay at 1 uM, percent of DMSO control
Details in all cases: competitive binding, percent of DMSO control
PDGFRB = PDGFRB (Homo sapiens, UniProt P09619)
In short: (§1)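 Single-point profiling at 1 µM compound in a competition-binding format against 96 kinases, read out as POC relative to control; n = 1.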

ERK2 = target: T1, ERK2 (Homo sapiens, UniProt P28482)
T1 construct: gene MAPK1
In short: as §1

BMPR1A = BMPR1A (Homo sapiens, UniProt P36894)
In short: as §1

Syk = Syk (Homo sapiens, UniProt P43405)
In short: as §1

JNK3 = target: T2, JNK3 (Homo sapiens, UniProt P53779)
T2 construct: gene MAPK10
In short: as §1

GRK1 = target: T3, GRK1 (Homo sapiens, UniProt Q15835)
T3 sequence (Q15835 1-563): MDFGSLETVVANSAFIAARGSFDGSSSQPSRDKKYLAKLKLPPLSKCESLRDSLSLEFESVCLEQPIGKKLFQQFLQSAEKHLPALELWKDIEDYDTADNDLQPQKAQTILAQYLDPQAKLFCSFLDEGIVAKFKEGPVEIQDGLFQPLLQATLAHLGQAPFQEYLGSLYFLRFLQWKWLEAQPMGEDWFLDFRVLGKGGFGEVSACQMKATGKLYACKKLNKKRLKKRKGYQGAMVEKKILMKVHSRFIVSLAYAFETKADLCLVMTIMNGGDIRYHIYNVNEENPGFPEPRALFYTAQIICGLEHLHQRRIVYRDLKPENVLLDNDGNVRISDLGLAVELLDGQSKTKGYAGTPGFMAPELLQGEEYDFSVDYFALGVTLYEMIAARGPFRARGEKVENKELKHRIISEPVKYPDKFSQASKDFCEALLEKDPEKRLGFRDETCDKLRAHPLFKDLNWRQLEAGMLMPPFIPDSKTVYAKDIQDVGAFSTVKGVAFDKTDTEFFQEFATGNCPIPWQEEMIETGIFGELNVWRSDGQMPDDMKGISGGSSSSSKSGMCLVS
In short: as §1

KDR = KDR (Homo sapiens, UniProt P35968)
In short: as §1

PRKAA1 = PRKAA1 (Homo sapiens, UniProt Q13131)
In short: as §1

[1] = read-out: Kinome Profiling performed by Eurofins DiscoverX / AM-1882, 1.0 µM / POC
[2] = read-out: Kinome Profiling performed by Eurofins DiscoverX / AM-0277, 1.0 µM / POC
[3] = read-out: Kinome Profiling performed by Eurofins DiscoverX / AM-5308, 1.0 µM / POC

Sequence of PRKAA1 (Q13131 whole entry): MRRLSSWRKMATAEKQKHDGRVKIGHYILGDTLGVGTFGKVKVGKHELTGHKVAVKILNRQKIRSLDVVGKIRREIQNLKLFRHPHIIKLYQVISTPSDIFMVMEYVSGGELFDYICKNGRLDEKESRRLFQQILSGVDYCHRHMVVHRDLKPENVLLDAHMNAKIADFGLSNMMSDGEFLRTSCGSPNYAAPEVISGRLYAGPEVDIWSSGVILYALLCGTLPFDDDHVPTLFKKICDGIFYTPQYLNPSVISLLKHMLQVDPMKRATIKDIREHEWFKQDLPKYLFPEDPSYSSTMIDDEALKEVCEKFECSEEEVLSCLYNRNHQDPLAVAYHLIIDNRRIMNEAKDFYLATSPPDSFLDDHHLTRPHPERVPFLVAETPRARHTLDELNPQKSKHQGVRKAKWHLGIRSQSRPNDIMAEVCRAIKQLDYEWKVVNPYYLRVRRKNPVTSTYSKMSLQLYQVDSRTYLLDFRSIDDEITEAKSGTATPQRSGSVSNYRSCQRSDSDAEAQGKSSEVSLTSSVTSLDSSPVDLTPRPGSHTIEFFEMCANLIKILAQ
Sequence of PRKAA1 (P54619 whole entry partner): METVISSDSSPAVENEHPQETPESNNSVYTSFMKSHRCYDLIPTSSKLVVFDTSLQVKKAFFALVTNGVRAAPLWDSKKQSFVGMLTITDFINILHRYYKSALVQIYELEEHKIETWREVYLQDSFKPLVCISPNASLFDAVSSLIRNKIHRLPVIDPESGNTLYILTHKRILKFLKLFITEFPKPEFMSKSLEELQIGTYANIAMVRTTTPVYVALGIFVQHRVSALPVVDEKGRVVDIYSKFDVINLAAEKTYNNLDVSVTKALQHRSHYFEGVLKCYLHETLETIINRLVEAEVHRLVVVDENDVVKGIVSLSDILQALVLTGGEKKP
Sequence of PRKAA1 (Q9Y478 whole entry partner): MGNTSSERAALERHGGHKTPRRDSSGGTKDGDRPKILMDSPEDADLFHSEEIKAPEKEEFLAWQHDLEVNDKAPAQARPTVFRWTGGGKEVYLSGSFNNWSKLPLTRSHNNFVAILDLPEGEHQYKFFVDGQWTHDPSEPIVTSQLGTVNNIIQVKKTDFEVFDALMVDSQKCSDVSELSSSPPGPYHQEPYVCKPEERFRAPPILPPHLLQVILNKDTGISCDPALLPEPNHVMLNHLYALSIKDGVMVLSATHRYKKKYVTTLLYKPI
Sequence of BMPR1A (P36894 whole entry): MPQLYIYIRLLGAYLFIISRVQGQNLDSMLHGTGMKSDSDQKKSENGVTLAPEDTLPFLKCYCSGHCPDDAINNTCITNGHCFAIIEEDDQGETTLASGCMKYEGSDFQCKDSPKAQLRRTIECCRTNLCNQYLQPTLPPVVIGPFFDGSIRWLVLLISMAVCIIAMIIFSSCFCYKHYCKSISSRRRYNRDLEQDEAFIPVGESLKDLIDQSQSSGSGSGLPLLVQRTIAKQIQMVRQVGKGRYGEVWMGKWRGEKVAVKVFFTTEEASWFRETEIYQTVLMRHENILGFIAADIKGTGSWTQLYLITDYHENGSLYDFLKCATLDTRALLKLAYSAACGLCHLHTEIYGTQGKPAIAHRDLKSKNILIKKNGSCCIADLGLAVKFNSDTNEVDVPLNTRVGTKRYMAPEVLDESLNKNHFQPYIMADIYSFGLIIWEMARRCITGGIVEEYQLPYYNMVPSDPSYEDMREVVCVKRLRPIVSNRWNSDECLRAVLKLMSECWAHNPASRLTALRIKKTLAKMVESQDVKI
T2 sequence (P53779 whole entry): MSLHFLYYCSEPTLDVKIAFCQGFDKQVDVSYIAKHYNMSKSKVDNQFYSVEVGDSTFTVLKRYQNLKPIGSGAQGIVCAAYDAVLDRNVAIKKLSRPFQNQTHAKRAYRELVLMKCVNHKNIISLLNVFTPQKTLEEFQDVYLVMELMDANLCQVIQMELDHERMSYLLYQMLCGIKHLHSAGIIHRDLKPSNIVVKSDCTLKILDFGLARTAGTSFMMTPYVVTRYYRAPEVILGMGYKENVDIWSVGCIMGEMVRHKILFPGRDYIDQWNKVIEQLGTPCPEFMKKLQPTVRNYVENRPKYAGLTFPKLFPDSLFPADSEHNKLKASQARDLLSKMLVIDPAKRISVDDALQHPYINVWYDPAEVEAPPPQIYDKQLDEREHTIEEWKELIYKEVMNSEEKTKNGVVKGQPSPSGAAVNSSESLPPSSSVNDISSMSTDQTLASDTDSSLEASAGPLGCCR
Sequence of PDGFRB (P09619 whole entry): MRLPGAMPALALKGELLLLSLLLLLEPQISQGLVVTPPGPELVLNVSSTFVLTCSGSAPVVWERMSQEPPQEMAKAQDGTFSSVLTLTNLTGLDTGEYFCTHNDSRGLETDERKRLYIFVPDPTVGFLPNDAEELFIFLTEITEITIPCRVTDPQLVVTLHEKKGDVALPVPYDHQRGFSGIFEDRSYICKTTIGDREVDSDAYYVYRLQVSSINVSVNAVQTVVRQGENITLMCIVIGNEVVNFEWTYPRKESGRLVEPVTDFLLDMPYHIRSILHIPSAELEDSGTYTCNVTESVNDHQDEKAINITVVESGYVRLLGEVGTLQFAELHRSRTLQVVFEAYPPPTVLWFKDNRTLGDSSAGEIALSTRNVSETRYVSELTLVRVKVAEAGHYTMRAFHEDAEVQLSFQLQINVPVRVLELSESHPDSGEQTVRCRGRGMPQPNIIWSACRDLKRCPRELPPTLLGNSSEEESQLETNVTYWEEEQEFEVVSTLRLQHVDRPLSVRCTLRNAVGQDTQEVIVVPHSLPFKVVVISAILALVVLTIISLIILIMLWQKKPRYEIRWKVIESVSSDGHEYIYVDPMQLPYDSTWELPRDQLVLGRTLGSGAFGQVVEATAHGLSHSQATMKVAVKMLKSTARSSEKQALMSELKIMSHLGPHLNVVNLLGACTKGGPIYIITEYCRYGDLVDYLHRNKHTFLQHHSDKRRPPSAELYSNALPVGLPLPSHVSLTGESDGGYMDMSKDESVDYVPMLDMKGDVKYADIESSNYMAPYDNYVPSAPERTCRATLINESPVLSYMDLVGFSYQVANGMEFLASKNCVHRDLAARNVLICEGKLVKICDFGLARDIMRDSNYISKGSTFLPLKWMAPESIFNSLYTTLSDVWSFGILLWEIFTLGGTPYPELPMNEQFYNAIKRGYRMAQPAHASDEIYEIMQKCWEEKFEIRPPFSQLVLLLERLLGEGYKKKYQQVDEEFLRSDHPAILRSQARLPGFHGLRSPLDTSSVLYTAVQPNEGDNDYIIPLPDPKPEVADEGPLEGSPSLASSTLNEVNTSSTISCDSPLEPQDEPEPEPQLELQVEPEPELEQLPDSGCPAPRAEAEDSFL
Sequence of KDR (P35968 whole entry): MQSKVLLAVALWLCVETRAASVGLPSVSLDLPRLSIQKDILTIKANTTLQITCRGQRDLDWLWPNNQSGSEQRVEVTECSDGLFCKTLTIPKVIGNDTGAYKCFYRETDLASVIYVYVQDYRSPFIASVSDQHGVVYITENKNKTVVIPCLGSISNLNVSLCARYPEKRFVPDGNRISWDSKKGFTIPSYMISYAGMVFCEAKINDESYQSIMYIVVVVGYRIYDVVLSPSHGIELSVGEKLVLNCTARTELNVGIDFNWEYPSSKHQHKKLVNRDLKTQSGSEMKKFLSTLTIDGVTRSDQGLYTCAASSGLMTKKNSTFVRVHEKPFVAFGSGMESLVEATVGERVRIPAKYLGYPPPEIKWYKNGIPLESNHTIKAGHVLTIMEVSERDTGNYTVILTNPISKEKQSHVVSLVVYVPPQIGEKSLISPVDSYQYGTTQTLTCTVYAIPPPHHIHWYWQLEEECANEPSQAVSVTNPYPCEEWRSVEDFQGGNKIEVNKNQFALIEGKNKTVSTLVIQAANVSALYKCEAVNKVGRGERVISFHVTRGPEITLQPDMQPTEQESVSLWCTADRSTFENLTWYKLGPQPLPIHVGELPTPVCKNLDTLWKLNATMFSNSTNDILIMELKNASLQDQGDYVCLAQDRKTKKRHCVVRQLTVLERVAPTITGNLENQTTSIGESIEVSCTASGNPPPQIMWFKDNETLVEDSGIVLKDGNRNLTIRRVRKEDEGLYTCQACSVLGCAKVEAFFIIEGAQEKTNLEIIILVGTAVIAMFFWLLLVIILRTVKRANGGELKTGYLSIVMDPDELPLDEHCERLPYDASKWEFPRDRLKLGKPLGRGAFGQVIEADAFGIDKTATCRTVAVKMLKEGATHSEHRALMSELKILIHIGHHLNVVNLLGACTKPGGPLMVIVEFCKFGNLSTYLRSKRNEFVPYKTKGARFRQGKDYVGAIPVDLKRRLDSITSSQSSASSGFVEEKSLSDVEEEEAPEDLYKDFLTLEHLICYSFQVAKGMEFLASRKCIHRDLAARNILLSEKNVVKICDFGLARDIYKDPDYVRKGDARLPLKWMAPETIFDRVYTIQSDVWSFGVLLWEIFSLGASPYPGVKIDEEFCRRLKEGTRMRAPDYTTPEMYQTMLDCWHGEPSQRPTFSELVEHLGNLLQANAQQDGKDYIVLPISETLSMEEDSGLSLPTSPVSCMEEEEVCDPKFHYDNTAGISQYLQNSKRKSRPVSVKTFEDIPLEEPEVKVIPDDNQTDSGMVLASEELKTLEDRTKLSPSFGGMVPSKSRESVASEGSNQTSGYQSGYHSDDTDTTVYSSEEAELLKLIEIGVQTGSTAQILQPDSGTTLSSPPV
T1 sequence (P28482 whole entry): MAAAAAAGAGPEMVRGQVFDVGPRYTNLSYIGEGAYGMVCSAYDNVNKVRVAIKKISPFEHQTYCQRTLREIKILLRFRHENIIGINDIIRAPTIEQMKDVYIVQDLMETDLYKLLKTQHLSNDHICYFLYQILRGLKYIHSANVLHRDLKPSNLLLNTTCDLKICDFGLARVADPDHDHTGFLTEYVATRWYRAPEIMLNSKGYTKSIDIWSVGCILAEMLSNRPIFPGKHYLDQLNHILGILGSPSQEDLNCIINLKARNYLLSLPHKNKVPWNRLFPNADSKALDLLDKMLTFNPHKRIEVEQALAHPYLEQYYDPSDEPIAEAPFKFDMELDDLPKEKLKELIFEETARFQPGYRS

Question: For CC(C)(C)NS(=O)(=O)c1cccc(NC(=O)c2ccc(S(=O)(=O)NC(C)(C)C)cc2N2CCC3(CC2)CC3)c1 [AM-1882], which remaining activity at 1 µM (PDGFRB; [1]) is on record?
Answer: 98%

Question: What about the remaining activity at 1 µM (ERK2; [1]) of the same compound?
Answer: 100%

Question: And the remaining activity at 1 µM (BMPR1A; [1])?
Answer: 100%

Question: What about the remaining activity at 1 µM (Syk; [1]) of the same compound?
Answer: 89.5%

Question: What about the remaining activity at 1 µM (JNK3; [1]) of the same compound?
Answer: 82%

Question: What about the remaining activity at 1 µM (GRK1; [1]) of the same compound?
Answer: 98.5%

Question: What about the remaining activity at 1 µM (KDR; [1]) of the same compound?
Answer: 80.5%

Question: What about the remaining activity at 1 µM (PRKAA1; [1]) of the same compound?
Answer: 100%

Question: What does the source list for CC(C)(CO)Nc1ccc(C(=O)Nc2cccc(S(=O)(=O)C3CCCC3)c2)c(N2CCC3(CC2)CC3)n1 [AM-0277]?
Answer: remaining activity at 1 µM (PDGFRB; [2]): 94%; remaining activity at 1 µM (ERK2; [2]): 95%; remaining activity at 1 µM (BMPR1A; [2]): 100%; remaining activity at 1 µM (Syk; [2]): 100%; remaining activity at 1 µM (JNK3; [2]): 100%; remaining activity at 1 µM (GRK1; [2]): 81%; remaining activity at 1 µM (KDR; [2]): 90%; remaining activity at 1 µM (PRKAA1; [2]): 96%

Question: What does the source list for C[C@@H]1CN(c2cccc(NC(=O)c3ccc(NS(=O)(=O)CCO)cc3N3CCC4(CC3)CC4)n2)CCO1 [AM-5308]?
Answer: remaining activity at 1 µM (PDGFRB; [3]): 97.5%; remaining activity at 1 µM (ERK2; [3]): 89%; remaining activity at 1 µM (BMPR1A; [3]): 93.5%; remaining activity at 1 µM (Syk; [3]): 79.5%; remaining activity at 1 µM (JNK3; [3]): 88.5%; remaining activity at 1 µM (GRK1; [3]): 91%; remaining activity at 1 µM (KDR; [3]): 53%; remaining activity at 1 µM (PRKAA1; [3]): 97%
